Species: Rattus norvegicus
Assay: DrugMatrix - Regimen: Daily Repeat
Assay type: toxicity, organism-based, Sprague-Dawley
Design: regimen Daily Repeat, gender Male, age 6-8 weeks
Settings: in vivo, po, route oral GAVAGE, vehicle 100 % SALINE; for ABSOLUTE BASOPHIL / ABSOLUTE EOSINOPHIL / ABSOLUTE LYMPHOCYTE / ABSOLUTE MONOCYTE / ABSOLUTE SEGMENTED NEUTROPHIL / BASOPHIL / EOSINOPHIL / ERYTHROCYTE COUNT / HEMATOCRIT / HEMOGLOBIN / LEUKOCYTE COUNT / MEAN CORPUSCULAR HEMOGLOBIN / MEAN CORPUSCULAR HEMOGLOBIN CONCENTRATION / MEAN CORPUSCULAR VOLUME / MONOCYTE / NEUTROPHIL / NUCLEATED RED BLOOD CELLS / PLATELET COUNT: tissue Blood; for ALANINE AMINOTRANSFERASE / ALBUMIN / ALKALINE PHOSPHATASE / ASPARTATE AMINOTRANSFERASE / BLOOD UREA NITROGEN / CARBON DIOXIDE / CHLORIDE / CHOLESTEROL / CREATINE PHOSPHOKINASE / CREATININE / GLUCOSE / LACTATE DEHYDROGENASE / LIPASE / PHOSPHORUS / POTASSIUM / SODIUM / TOTAL BILIRUBIN / TOTAL PROTEIN / URIC ACID: tissue Plasma
[1] = 0 mg/kg, 72 h, dose level Control, time 3 day
[2] = 0 mg/kg, 120 h, dose level Control, time 5 day
[3] = 40 mg/kg, 72 h, dose level Low, time 3 day

With `Oc1ccccc1O` [CATECHOL] the “ABSOLUTE BASOPHIL” value [1] was 0 CELLS/uL, the “ABSOLUTE EOSINOPHIL” value [1] was 65.67 CELLS/uL and the “ABSOLUTE LYMPHOCYTE” value [1] was 17283.5 CELLS/uL. The “ABSOLUTE MONOCYTE” value [1] was 0 CELLS/uL, the “ABSOLUTE SEGMENTED NEUTROPHIL” value [1] was 1284.17 CELLS/uL and the BASOPHIL [1] was 0%. The EOSINOPHIL [1] was 0.33%, the “ERYTHROCYTE COUNT” value [1] was 5.46 x10E6/uL and the HEMATOCRIT [1] was 34.28%. For the same compound, the HEMOGLOBIN [1] was 13.78 G/DL, the “LEUKOCYTE COUNT” value [1] was 18.63 x10E3/uL and the “MEAN CORPUSCULAR HEMOGLOBIN” value [1] was 25.3 pg. The “MEAN CORPUSCULAR HEMOGLOBIN CONCENTRATION” value [1] was 40.22 G/DL, the “MEAN CORPUSCULAR VOLUME” value [1] was 62.87 fL and the MONOCYTE [1] was 0%. The NEUTROPHIL [1] was 7%, the “NUCLEATED RED BLOOD CELLS” value [1] was 0 /100WBC and the “PLATELET COUNT” value [1] was 1244.83 x10E3/uL. For the same compound, the “ALANINE AMINOTRANSFERASE” value [1] was 52.83 u/L, the ALBUMIN [1] was 4 G/DL and the “ALKALINE PHOSPHATASE” value [1] was 327.67 u/L. For the same compound, the “ASPARTATE AMINOTRANSFERASE” value [1] was 78.83 u/L, the “BLOOD UREA NITROGEN” value [1] was 13.83 mg/dL and the “CARBON DIOXIDE” value [1] was 26.67 mmol/L. The CHLORIDE [1] was 99.67 MEQ/L, the CHOLESTEROL [1] was 69 mg/dL and the “CREATINE PHOSPHOKINASE” value [1] was 350.17 u/L. For the same compound, the CREATININE [1] was 0.21 mg/dL, the GLUCOSE [1] was 173.83 mg/dL and the “LACTATE DEHYDROGENASE” value [1] was 168.33 u/L. It also gave an LIPASE [1] of 11 u/L, a PHOSPHORUS [1] of 12.7 mg/dL and a POTASSIUM [1] of 6.88 MEQ/L. The SODIUM [1] was 141.68 MEQ/L, the “TOTAL BILIRUBIN” value [1] was 0.22 mg/dL and the “TOTAL PROTEIN” value [1] was 6.02 G/DL. For the same compound, the “URIC ACID” value [1] was 1.9 mg/dL, the “ABSOLUTE BASOPHIL” value [2] was 0 CELLS/uL and the “ABSOLUTE EOSINOPHIL” value [2] was 14.83 CELLS/uL. For the same compound, the “ABSOLUTE LYMPHOCYTE” value [2] was 12880 CELLS/uL, the “ABSOLUTE MONOCYTE” value [2] was 90.67 CELLS/uL and the “ABSOLUTE SEGMENTED NEUTROPHIL” value [2] was 864.5 CELLS/uL. The BASOPHIL [2] was 0%, the EOSINOPHIL [2] was 0.17% and the “ERYTHROCYTE COUNT” value [2] was 5.83 x10E6/uL. The HEMATOCRIT [2] was 35.87%, the HEMOGLOBIN [2] was 14 G/DL and the “LEUKOCYTE COUNT” value [2] was 13.85 x10E3/uL. For the same compound, the “MEAN CORPUSCULAR HEMOGLOBIN” value [2] was 24.03 pg, the “MEAN CORPUSCULAR HEMOGLOBIN CONCENTRATION” value [2] was 39.03 G/DL and the “MEAN CORPUSCULAR VOLUME” value [2] was 61.53 fL. For the same compound, the MONOCYTE [2] was 0.67%, the NEUTROPHIL [2] was 6.67% and the “NUCLEATED RED BLOOD CELLS” value [2] was 0 /100WBC. For the same compound, the “PLATELET COUNT” value [2] was 1041.83 x10E3/uL, the “ALANINE AMINOTRANSFERASE” value [2] was 56 u/L and the ALBUMIN [2] was 4.47 G/DL. The “ALKALINE PHOSPHATASE” value [2] was 319 u/L, the “ASPARTATE AMINOTRANSFERASE” value [2] was 89.17 u/L and the “BLOOD UREA NITROGEN” value [2] was 15.2 mg/dL. The “CARBON DIOXIDE” value [2] was 24 mmol/L, the CHLORIDE [2] was 104.4 MEQ/L and the CHOLESTEROL [2] was 69.5 mg/dL. The “CREATINE PHOSPHOKINASE” value [2] was 295.83 u/L, the CREATININE [2] was 0.21 mg/dL and the GLUCOSE [2] was 124.33 mg/dL. For the same compound, the “LACTATE DEHYDROGENASE” value [2] was 325.5 u/L, the LIPASE [2] was 14.67 u/L and the PHOSPHORUS [2] was 11.45 mg/dL. For the same compound, the POTASSIUM [2] was 6.74 MEQ/L, the SODIUM [2] was 151.4 MEQ/L and the “TOTAL BILIRUBIN” value [2] was 0.23 mg/dL. For the same compound, the “TOTAL PROTEIN” value [2] was 6.45 G/DL, the “URIC ACID” value [2] was 1.18 mg/dL and the “ABSOLUTE BASOPHIL” value [3] was 0 CELLS/uL. For the same compound, the “ABSOLUTE EOSINOPHIL” value [3] was 0 CELLS/uL, the “ABSOLUTE LYMPHOCYTE” value [3] was 14994 CELLS/uL and the “ABSOLUTE MONOCYTE” value [3] was 0 CELLS/uL. The “ABSOLUTE SEGMENTED NEUTROPHIL” value [3] was 739.33 CELLS/uL, the BASOPHIL [3] was 0% and the EOSINOPHIL [3] was 0%. The “ERYTHROCYTE COUNT” value [3] was 5.48 x10E6/uL, the HEMATOCRIT [3] was 33.5% and the HEMOGLOBIN [3] was 13.33 G/DL. For the same compound, the “LEUKOCYTE COUNT” value [3] was 15.73 x10E3/uL, the “MEAN CORPUSCULAR HEMOGLOBIN” value [3] was 24.37 pg and the “MEAN CORPUSCULAR HEMOGLOBIN CONCENTRATION” value [3] was 39.87 G/DL. For the same compound, the “MEAN CORPUSCULAR VOLUME” value [3] was 61.1 fL, the MONOCYTE [3] was 0% and the NEUTROPHIL [3] was 4.67%. The “NUCLEATED RED BLOOD CELLS” value [3] was 0 /100WBC, the “PLATELET COUNT” value [3] was 1095.33 x10E3/uL and the “ALANINE AMINOTRANSFERASE” value [3] was 43.67 u/L. The ALBUMIN [3] was 4.2 G/DL, the “ALKALINE PHOSPHATASE” value [3] was 287 u/L and the “ASPARTATE AMINOTRANSFERASE” value [3] was 70.67 u/L. The “BLOOD UREA NITROGEN” value [3] was 13.33 mg/dL, the “CARBON DIOXIDE” value [3] was 23.67 mmol/L and the CHLORIDE [3] was 101 MEQ/L. For the same compound, the CHOLESTEROL [3] was 74 mg/dL, the “CREATINE PHOSPHOKINASE” value [3] was 350.33 u/L and the CREATININE [3] was 0.22 mg/dL. For the same compound, the GLUCOSE [3] was 176.67 mg/dL, the “LACTATE DEHYDROGENASE” value [3] was 113.33 u/L and the LIPASE [3] was 10.33 u/L. The PHOSPHORUS [3] was 11.93 mg/dL, the POTASSIUM [3] was 6.1 MEQ/L and the SODIUM [3] was 140.57 MEQ/L. For the same compound, the “TOTAL BILIRUBIN” value [3] was 0.17 mg/dL, the “TOTAL PROTEIN” value [3] was 6.13 G/DL and the “URIC ACID” value [3] was 2 mg/dL.

Source: ChEMBL document CHEMBL3885881, “DrugMatrix”
